Laboratory results published in the supplement of paper PMC6723410.

Test system: GUMC-403
Assay: viability at highest tested concentration (max response) relative to DMSO (% of DMSO control); higher = less cytotoxic
Conditions: library / dose series: MIPE library, 11-point 1:3 dilution; top concentration 46.1 µM; 48 h
Procedure, shortened: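 Plates of 1536 wells were seeded with 700 patient-derived GUMC-403 papilloma cells per well, grown by conditional reprogramming, in 5 μL F + Y medium and kept overnight at 37 °C. Compounds followed at 23 nL by pin tool over an 11-point 1:3 series, for 48 h. After a CellTiter-Glo luminescence read on a ViewLux, signals were set against vehicle wells as 100% and empty wells as 0%. The reported number is viability at the highest tested concentration relative to vehicle control.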

| SMILES | viability |
| --- | --- |
| CNC(=O)c1c(-c2ccc(F)cc2)oc2cc(N(CCO)[S+](C)(=O)[O-])c(C3CC3)cc12 | 69.1 |
| CCC(=O)O[C@@]1(CC[C@H]2[C@@H]3CCC/4=C/C(=O)CC[C@]4(C)[C@H]3CC[C@]12C)C(=O)CO | 119 |
| NC/1=N/C(=O)C2=C([NH]C=C2CCC3=CC=C(C=C3)C(=O)N[C@@H](CCC(O)=O)C(O)=O)N1 | 119 |
| CCN1\C=C(\C(O)=O)C(=O)C2=CC=C(C)N=C12 | 92 |
| CC[C@H](CO)Nc1nc(NCc2ccccc2)c2ncn(C(C)C)c2n1 | 42.6 |
| CC(Oc1ccc(O)cc1)(P(=O)(O)O)P(=O)(O)O | 112 |
| C#CCN[C@@H]1CCc2ccccc21.CS(=O)(=O)O | 89 |
| C[S+](=O)([O-])c1cc(F)cc2c3c(n(Cc4ccc(Cl)cc4)c12)[C@@H](CC(=O)O)CC3 | 128 |
| Cc1c[nH]c(/C=C2\C(=O)Nc3ccccc32)c1CCC(=O)O | 136 |
| OC(=O)C/1=C/C(=O)NC(=O)N1 | 122 |
| C=C1C(=O)O[C@@H]2[C@H]3O[C@]3(C)CC/C=C(\C)CC[C@@H]12 | 108 |
| CC(O)C1C2C(C)\C(=C(/N2C1=O)C(O)=O)SC3CNC(C3)C(=O)N(C)C (stereo unspecified) | 115 |
| CC1=CC2=C(O1)C(=C3OC(=O)\C=C(C)/C3=C2)C | 111 |
| O=c1[nH]cnc2c1ncn2[C@H]1CC[C@@H](CO)O1 | 144 |
| CC1(C)S[C@H]2[C@H](NC(=O)[C@@H](N)C3=CC=C(O)C=C3)C(=O)[N@]2[C@H]1C(O)=O | 124 |
| CO/N=C(\C(=O)N[C@@H]1C(=O)N2C(C(=O)OCOC(=O)C(C)(C)C)=C(/C=C\c3scnc3C)CS[C@H]12)c1csc(N)n1 | 137 |

| SMILES | viability |
| --- | --- |
| CCN(CC)C(=O)C1=CC=C(C=C1)C/2=C/C3(CCNCC3)OC4=CC=CC(=C24)O | 125 |
| Cc1cnc(Nc2ccc(OCCN3CCCC3)cc2)nc1Nc1cccc([S+](=O)([O-])NC(C)(C)C)c1 | 141 |
| O=C1CCC[C@@H]2[C@H]3CCC[N+]4([O-])CCC[C@@H](CN12)[C@@H]34 (stereo partly specified) | 106 |
| COc1cc2ncnc(-n3nc(-c4ccccn4)nc3N)c2cc1OC | 124 |
| NC(=O)c1ccc(I)c([N+](=O)[O-])c1 | 122 |
| CN(C)CCc1c[nH]c2ccc(C[S+](=O)([O-])N3CCCC3)cc12 | 78.5 |
| CN(C)c1ccccc1CN1CCCN(Cc2ccccc2N(C)C)C1c1ccncc1 | 97.4 |
| Cc1nnc(N[S+](=O)([O-])c2ccc(N)cc2)s1 | 113 |
| CC1(C)CCC[C@]2(C)[C@H]3CC(=O)O[C@]3(C)CC[C@@H]12 | 96 |
| CC(=O)N(C)C1(c2ccccc2)CCN(CCC[C@]2(c3ccc(Cl)c(Cl)c3)CCCN(C(=O)c3ccccc3)C2)CC1 | 96.7 |
| C=CC[C@@H]1/C=C(\C)C[C@H](C)C[C@H](OC)[C@H]2O[C@@](O)(C(=O)C(=O)N3CCCC[C@H]3C(=O)O[C@H](/C(C)=C/[C@@H]3CC[C@@H](O)[C@H](OC)C3)[C@H](C)[C@@H](O)CC1=O)[C@H](C)C[C@@H]2OC | 126 |
| CN(C)CCCN\C1=C\2C(=O)N(C)C(=O)\N=C2N(C)C3=C1C=CC=C3 | 107 |
| COc1cc2c(cc1OC)C1CC(=O)C(CC(C)C)CN1CC2 (stereo unspecified) | 110 |
| CO/N=C(/C(=O)N[C@@H]1C(=O)N2C(C(=O)O)=C(Cn3ccc(=N)n3CCO)CS[C@H]12)c1csc(N)n1 | 109 |
| Cc1cc(-c2ncc(CC(=O)Nc3ccc(-c4cnccn4)cn3)cc2C)ccn1 | 85.8 |
